Test results published in ChEMBL document CHEMBL1132438, “Heterodimeric tacrine-based acetylcholinesterase inhibitors: investigating ligand-peripheral site interactions” (J Med Chem, 1999).

How the values were obtained:
Butyrylcholinesterase = Butyrylcholinesterase (Rattus norvegicus, UniProt Q9JKC1)
Description: Inhibition of rat serum butyrylcholinesterase, in the presence of a specific AChE inhibitor; BW284c51

Acetylcholinesterase = target: T1, Acetylcholinesterase (Rattus norvegicus, UniProt P37136); experiment: biochemical
T1 sequence (P37136 whole entry): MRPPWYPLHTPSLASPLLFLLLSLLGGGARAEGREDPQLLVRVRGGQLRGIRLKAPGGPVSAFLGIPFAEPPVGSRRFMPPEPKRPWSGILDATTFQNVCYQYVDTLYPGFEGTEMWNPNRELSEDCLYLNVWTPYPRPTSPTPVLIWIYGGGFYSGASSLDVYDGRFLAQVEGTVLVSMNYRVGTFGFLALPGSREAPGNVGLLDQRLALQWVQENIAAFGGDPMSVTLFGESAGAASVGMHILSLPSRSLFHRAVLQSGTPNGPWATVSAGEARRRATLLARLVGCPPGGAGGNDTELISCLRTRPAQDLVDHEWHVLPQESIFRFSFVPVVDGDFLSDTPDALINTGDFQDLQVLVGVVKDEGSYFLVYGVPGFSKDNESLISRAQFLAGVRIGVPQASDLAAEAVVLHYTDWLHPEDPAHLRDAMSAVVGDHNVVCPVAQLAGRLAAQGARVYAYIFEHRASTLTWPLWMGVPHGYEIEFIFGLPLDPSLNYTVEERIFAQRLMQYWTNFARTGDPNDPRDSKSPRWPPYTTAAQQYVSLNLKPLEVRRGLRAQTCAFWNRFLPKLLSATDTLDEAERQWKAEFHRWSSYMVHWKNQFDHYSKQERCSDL
Description: Inhibition of acetylcholinesterase activity in rat cerebral cortex homogenate, in the presence of a specific butyrylcholinesterase (BChE) inhibitor; ethopropazine

Sequence of Butyrylcholinesterase (Q9JKC1 whole entry): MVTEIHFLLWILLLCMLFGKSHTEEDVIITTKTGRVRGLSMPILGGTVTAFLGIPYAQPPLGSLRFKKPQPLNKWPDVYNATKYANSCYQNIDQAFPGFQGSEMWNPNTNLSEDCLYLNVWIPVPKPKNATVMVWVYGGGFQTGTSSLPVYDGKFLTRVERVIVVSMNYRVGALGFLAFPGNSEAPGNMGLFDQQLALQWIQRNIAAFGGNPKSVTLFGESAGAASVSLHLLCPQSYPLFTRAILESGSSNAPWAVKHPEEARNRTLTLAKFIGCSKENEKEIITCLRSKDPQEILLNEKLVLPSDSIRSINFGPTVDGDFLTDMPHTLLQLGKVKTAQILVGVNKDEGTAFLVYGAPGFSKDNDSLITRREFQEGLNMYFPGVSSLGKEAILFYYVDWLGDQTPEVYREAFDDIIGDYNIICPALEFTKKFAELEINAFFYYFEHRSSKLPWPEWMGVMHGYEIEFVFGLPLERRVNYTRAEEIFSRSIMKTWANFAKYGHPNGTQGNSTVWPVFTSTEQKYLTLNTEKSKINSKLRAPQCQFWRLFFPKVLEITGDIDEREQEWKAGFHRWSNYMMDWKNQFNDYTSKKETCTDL

With `c1ccc2c(NCCCCCCCCCNc3c4c(nc5ccccc35)CCCC4)ccnc2c1` the IC50 (Butyrylcholinesterase) was 156 nM and the IC50 (Acetylcholinesterase) was 38.7 nM.

`c1ccc2c(NCCCCCCCCCCNc3ccncc3)c3c(nc2c1)CCCC3` gave an IC50 (Butyrylcholinesterase) of 427 nM and an IC50 (Acetylcholinesterase) of 176 nM.

With `NCCCCCCCCCCCCNc1c2c(nc3ccccc13)CCCC2` the IC50 (Butyrylcholinesterase) was 791 nM and the IC50 (Acetylcholinesterase) was 180 nM.

Work on `Cc1cccc2c(NCCCCCCCCNc3c4c(nc5ccccc35)CCCC4)c3c(nc12)CCCC3` yielded an IC50 (Butyrylcholinesterase) of 105 nM and an IC50 (Acetylcholinesterase) of 7.8 nM.

Compound `c1ccc2c(NCCCCCCCCNc3ccncc3)c3c(nc2c1)CCCC3` has an IC50 (Butyrylcholinesterase) of 157 nM and an IC50 (Acetylcholinesterase) of 13.6 nM.

`c1ccc2c(NCCCCCCCNc3ccncc3)c3c(nc2c1)CCCC3` gave an IC50 (Butyrylcholinesterase) of 302 nM and an IC50 (Acetylcholinesterase) of 12.8 nM.

`c1ccc2c(NCCCCCCCCCNc3ccncc3)c3c(nc2c1)CCCC3` gave an IC50 (Butyrylcholinesterase) of 200 nM and an IC50 (Acetylcholinesterase) of 83.6 nM.

Compound `NCCCCCCCCCNc1c2c(nc3ccccc13)CCCC2` has an IC50 (Butyrylcholinesterase) of 687 nM and an IC50 (Acetylcholinesterase) of 131 nM.

In the case of `CN(C)CCCCCCCNc1c2c(nc3ccccc13)CCCC2`, the IC50 (Butyrylcholinesterase) is reported as 143 nM and the IC50 (Acetylcholinesterase) is reported as 52 nM.

`CN(C)CCCCCCCCCCNc1c2c(nc3ccccc13)CCCC2` showed an IC50 (Butyrylcholinesterase) of 581 nM and an IC50 (Acetylcholinesterase) of 45 nM.

`CN(C)CCCCCCCCNc1c2c(nc3ccccc13)CCCC2` showed an IC50 (Butyrylcholinesterase) of 170 nM and an IC50 (Acetylcholinesterase) of 47 nM.

`c1ccc2c(NCCCCCCCCCCCCNc3ccncc3)c3c(nc2c1)CCCC3` gave an IC50 (Butyrylcholinesterase) of 377 nM and an IC50 (Acetylcholinesterase) of 261 nM.

`CN(C)CCCCCCCCCCCCNc1c2c(nc3ccccc13)CCCC2` was tested, and the IC50 (Butyrylcholinesterase) was 695 nM and the IC50 (Acetylcholinesterase) was 264 nM.

Work on `NCCCCCCCNc1c2c(nc3ccccc13)CCCC2` yielded an IC50 (Butyrylcholinesterase) of 357 nM and an IC50 (Acetylcholinesterase) of 319 nM.

For `NCCCCCCCCCCNc1c2c(nc3ccccc13)CCCC2`, the IC50 (Butyrylcholinesterase) was 682 nM and the IC50 (Acetylcholinesterase) was 147 nM.

Work on `c1ccc2c(NCCCCCCCCNc3c4c(nc5ccccc35)CCCC4)ccnc2c1` yielded an IC50 (Butyrylcholinesterase) of 126 nM and an IC50 (Acetylcholinesterase) of 8.8 nM.

Compound `Cc1cccc2c(NCCCCCCCNc3c4c(nc5ccccc35)CCCC4)c3c(nc12)CCCC3` has an IC50 (Acetylcholinesterase) of 1.5 nM.

With `Nc1ccncc1` [DALFAMPRIDINE] the IC50 (Acetylcholinesterase) was > 500000 nM.

Work on `NCCCCCCCCNc1c2c(nc3ccccc13)CCCC2` yielded an IC50 (Butyrylcholinesterase) of 202 nM and an IC50 (Acetylcholinesterase) of 89.4 nM.

`Nc1ccnc2ccccc12` [QUINOLIN-4-AMINE] showed an IC50 (Acetylcholinesterase) of 50700 nM.

`c1ccc2c(NCCCCCCCNc3c4c(nc5ccccc35)CCCC4)ccnc2c1` showed an IC50 (Butyrylcholinesterase) of 110 nM and an IC50 (Acetylcholinesterase) of 10.1 nM.

For `CN(C)CCCCCCCCCNc1c2c(nc3ccccc13)CCCC2`, the IC50 (Butyrylcholinesterase) was 237 nM and the IC50 (Acetylcholinesterase) was 71 nM.
